Reference: patent US6498176B1, “3-(anilinomethylene) oxindoles as protein tyrosine kinase and protein serine/threonine kinase inhibitors” (SmithKlineBeecham Corporation, priority 1999, dated 2002)

Legend:
[1] = test system: human umbilical vein endothelial cells (HUVECs); experiment: HUVEC BrdU incorporation, bFGF stimulation; assay type: cell-based; details: 0.3 ng/ml bFGF, 72 hrs; read-out: Inhibition of BrdU incorporation in HUVEC cells, BFGF Stimulation (IC50)
Source text: (§1) An assay to measure this effect involves measurement of the inhibition of bromo-deoxy uridine (BrdU) incorporation (evidence of DNA synthesis) in human umbilical vein endothelial cells (HUVECs).
(§2) HUVEC cells and EGM (Endothelial cell growth medium) were purchased from Clonetics (San Diego, Calif.). VEGF and bFGF were purchased from Genzyme. M199 medium (Gibco BRL) with BSA (Sigma) was used for cell culture in Type I collagen coated plates (Becton Dickinson). The degree of BrdU incorporation was measured using a commercial colorimetric ELISA assay from Boehringer Mannheim.
(§3) HUVECs were plated at a density of 2500 cells per well in M199 medium containing 5% FBS (Hyclone) in a Type-I Collagen coated plate. The plate was incubated at 37° C. overnight. The medium was removed by aspiration, and test compounds were added to each well in a volume of 0.1 ml per well in serum-free M199 medium. […] The plate was incubated for 30 min at 37° C. Another 0.1 ml of serum-free M199 medium containing BSA and VEGF (or bFGF) was added to give a final concentration of 0.1% BSA and 20 ng/ml VEGF (0.3 ng/ml bFGF). The plate was incubated at 37° C. for 72 hrs. BrdU was added to each well after the first 48 hrs to give a concentration of 10 micomolar. The calorimetric ELISA assay was performed according to manufacturer's instructions, with detection by absorbance reading at 450 nm.

[2] = molecular target: T1, c-fms intracellular domain (Homo sapiens, UniProt P07333); experiment: c-fms protein kinase assay; assay type: biochemical; details: 1.7 μM ATP, 90 min at room temperature; read-out: Kinase inhibition c-fms (IC50)
T1 construct: The c-fms intracellular domain was expressed from a baculovirus expression system, as an amino-terminal GST fusion protein; GST (N); made in house; host or cells: baculovirus expression system
T1 sequence (P07333 539-972 limits assumed): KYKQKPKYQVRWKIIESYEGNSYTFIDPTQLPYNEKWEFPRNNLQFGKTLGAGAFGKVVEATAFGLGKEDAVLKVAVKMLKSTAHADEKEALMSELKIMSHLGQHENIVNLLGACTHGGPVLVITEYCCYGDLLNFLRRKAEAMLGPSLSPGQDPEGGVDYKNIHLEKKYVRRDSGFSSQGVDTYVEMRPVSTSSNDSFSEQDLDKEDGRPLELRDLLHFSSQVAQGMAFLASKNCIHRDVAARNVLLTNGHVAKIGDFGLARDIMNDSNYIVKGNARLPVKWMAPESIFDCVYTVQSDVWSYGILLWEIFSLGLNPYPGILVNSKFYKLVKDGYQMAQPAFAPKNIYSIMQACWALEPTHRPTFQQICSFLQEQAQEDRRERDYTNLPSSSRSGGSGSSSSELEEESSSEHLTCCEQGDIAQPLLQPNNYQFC
Procedure: c-fms protein kinase assays utilized the peptide substrate, biotin-[…]-NH2, as the phosphoryl group acceptor. The c-fms intracellular domain was expressed from a baculovirus expression system, as an amino-terminal GST fusion protein, and purified to homogeneity using Glutathione agarose from Sigma Chemical Co. Maximum activation of the enzyme was achieved by preactivation at room temperature for 120 min in the presence of 100 μM ATP and 15 mM MgCl2, This enzyme stock was diluted to 150 nM prior to using in the assay. Typically assays were performed in white, opaque, 96-well plates in a 45 ul assay volume including 15 ul 6% DMSO, with or without compounds, 15 ul of the preactivated, diluted enzyme, and 15 ul of a substrate mixture. Reactions contained 50 mM HEPES, pH 7.5, 1.7 μM ATP, 15 mM MgCl2, 3 μM peptide, 2.5 mM DTT, 50 mM NaCl and 0.15 uCi/assay [^32P]ATP. The controls were reactions in the presence (negative controls) or absence (positive controls) of 50 mM EDTA. Reactions were allowed to proceed for 90 min at room temperature. The reaction products were quantified using Scintillation Proximity technolgy. […] Plates were sealed and counted in a Packard Topcount scintillation counter. […]

[3] = test system: human umbilical vein endothelial cells (HUVECs); experiment: HUVEC BrdU incorporation, VEGF stimulation; assay type: cell-based; details: 20 ng/ml VEGF, 72 hrs; read-out: Inhibition of BrdU incorporation in HUVEC cells, VEGF stimulation (IC50)
Source text: as §1, §2, §3

Compound: O=C1Nc2ccc3ncccc3c2/C1=C/Nc1ccc(CCO)cc1 [Example 32]
- IC50 [1]: 1.1 to 5 µM
- IC50 [2]: > 0.1 µM
- IC50 [3]: 0.01 to 0.5 µM
